Assay results as given in PubChem BioAssay (NCI).
Where “and” joins values, the source holds several entries; their conditions need not be identical. Equal entries are not always repeated.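 Five concentrations, 48 hours, 96-well plates. The concentration for 50% growth inhibition is given as GI50. TGI: total growth inhibition.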

Experiments:
Test in all cases: inhibition of tumour cell growth, NCI panel, 48 h
[1] = tested on: SW-620 colon
[2] = tested on: UACC-257 melanoma
[3] = tested on: 786-0 renal
[4] = tested on: HCC-2998 colon
[5] = tested on: CAKI-1 renal
[6] = tested on: SF-539 CNS
[7] = tested on: M14 melanoma
[8] = tested on: IGROV1 ovarian
[9] = tested on: NCI-H460 lung
[10] = tested on: DU-145 prostate

In the case of `CC(=O)c1cc2c(o1)C(=O)c1ccccc1C2=O`, the GI50 [1] is reported as 288 nM and 276 nM, the TGI [1] is reported as 0.794 µM and 0.756 µM and the GI50 [2] is reported as 191 nM and 197 nM. The TGI [2] was 0.37 µM and 0.451 µM, the GI50 [3] was 381 nM and 1210 nM and the TGI [3] was 1.02 µM and 2.71 µM. The GI50 [4] was 460 nM and 261 nM, the TGI [4] was 0.993 µM and 0.689 µM and the GI50 [5] was 1450 nM and 823 nM. For the same compound, the TGI [5] was 2.93 µM and 2.24 µM, the GI50 [6] was 0.178 µM and 0.184 µM and the TGI [6] was 0.317 µM and 0.328 µM. The GI50 [7] was 169 nM and 183 nM, the TGI [7] was 0.322 µM and 0.345 µM and the GI50 [8] was 644 nM and 409 nM. For the same compound, the TGI [8] was 1.63 µM and 1.56 µM, the GI50 [9] was 210 nM and 194 nM and the TGI [9] was 0.422 µM and 0.375 µM. For the same compound, the GI50 [10] was 0.174 µM and 0.186 µM and the TGI [10] was 0.32 µM and 0.331 µM.

`Cn1cnc([N+](=O)[O-])c1S(=O)(=O)Oc1ccccc1` showed a GI50 [1] of 1920 nM, a TGI [1] of 4.34 µM and a GI50 [2] of 3840 nM. It also gave a TGI [2] of 16.3 µM, a GI50 [3] of 25100 nM and a TGI [3] of 55.6 µM. For the same compound, the GI50 [4] was 19300 nM, the TGI [4] was 40.7 µM and the GI50 [5] was 1660 nM. It also gave a TGI [5] of 3.41 µM, a GI50 [6] of 14 µM and a TGI [6] of 29.8 µM. For the same compound, the GI50 [7] was 11100 nM, the TGI [7] was 27.3 µM and the GI50 [8] was 2210 nM. For the same compound, the TGI [8] was 4.76 µM, the GI50 [9] was 23900 nM and the TGI [9] was greater than 72.8 µM. For the same compound, the GI50 [10] was 5.6 µM and the TGI [10] was 17 µM.

Compound `C=CC(=O)N1CCC(C2CCNc3c(C(N)=O)c(-c4ccc(Oc5ccccc5)cc4)nn32)CC1` (stereo not given) has a GI50 [1] of 31800 nM, a TGI [1] greater than 100 µM and a GI50 [2] of 20300 nM. The TGI [2] was 51.2 µM, the GI50 [3] was 12200 nM and the TGI [3] was greater than 100 µM. The GI50 [4] was 14800 nM, the TGI [4] was 28.6 µM and the GI50 [5] was 4510 nM. For the same compound, the TGI [5] was 71 µM, the GI50 [6] was 13.5 µM and the TGI [6] was 43 µM. For the same compound, the GI50 [7] was 15400 nM, the TGI [7] was 33.1 µM and the GI50 [8] was 796 nM. For the same compound, the TGI [8] was 16.9 µM, the GI50 [9] was 31400 nM and the TGI [9] was greater than 100 µM. For the same compound, the GI50 [10] was 11.6 µM and the TGI [10] was greater than 100 µM.

`O=C(c1ccc(F)c(F)c1Nc1ccc(I)cc1F)N1CC(O)([C@@H]2CCCCN2)C1` was tested, and the GI50 [1] was < 21.5 nM and 56.3 nM, the TGI [1] was 14.4 µM and > 10 µM and the GI50 [2] was < 10 nM and 4.13 nM. The TGI [2] was 0.0368 µM and 0.0363 µM, the GI50 [3] was 5740 nM and 3820 nM and the TGI [3] was 20.6 µM and > 10 µM. The GI50 [4] was < 15 nM and 19.4 nM, the TGI [4] was 0.86 µM and 0.952 µM and the GI50 [5] was 2360 nM. For the same compound, the TGI [5] was 17.9 µM and > 10 µM, the GI50 [6] was 3.22 µM and > 9.01 µM and the TGI [6] was 18.5 µM and > 10 µM. The GI50 [7] was < 10 nM and 2.83 nM, the TGI [7] was 0.205 µM and 0.0436 µM and the GI50 [8] was < 46.1 nM and 125 nM. The TGI [8] was 13.8 µM and > 10 µM, the GI50 [9] was 2920 nM and 2420 nM and the TGI [9] was 17.9 µM and > 10 µM. The GI50 [10] was 3.32 µM and 3.18 µM and the TGI [10] was 19.9 µM and > 10 µM.

Work on `CS(=O)(=O)CCCn1c(=O)c(Oc2ccc(F)cc2F)cc2cnc(NC3CCOCC3)nc21` yielded a GI50 [1] greater than 25000 nM, a TGI [1] greater than 25 µM and a GI50 [2] greater than 25000 nM. The TGI [2] was greater than 25 µM, the GI50 [3] was greater than 25000 nM and the TGI [3] was greater than 25 µM. For the same compound, the GI50 [4] was greater than 25000 nM, the TGI [4] was greater than 25 µM and the GI50 [5] was greater than 25000 nM. For the same compound, the TGI [5] was greater than 25 µM, the GI50 [6] was greater than 25 µM and the TGI [6] was greater than 25 µM. For the same compound, the GI50 [7] was greater than 25000 nM, the TGI [7] was greater than 25 µM and the GI50 [8] was greater than 25000 nM. The TGI [8] was greater than 25 µM, the GI50 [9] was greater than 25000 nM and the TGI [9] was greater than 25 µM. It also gave a GI50 [10] greater than 25 µM and a TGI [10] greater than 25 µM.

For `Cc1ccc(Cl)cc1Nc1nc(C(F)(F)F)ccc1C(=O)N1CCN(c2cccc(Cl)c2)CC1`, the GI50 [1] was greater than 100000 nM, the TGI [1] was greater than 100 µM and the GI50 [2] was greater than 100000 nM. For the same compound, the TGI [2] was greater than 100 µM, the GI50 [3] was greater than 100000 nM and the TGI [3] was greater than 100 µM. The GI50 [4] was 17800 nM, the TGI [4] was greater than 100 µM and the GI50 [5] was 26400 nM. It also gave a TGI [5] greater than 100 µM, a GI50 [6] greater than 100 µM and a TGI [6] greater than 100 µM. The GI50 [7] was greater than 100000 nM, the TGI [7] was greater than 100 µM and the GI50 [8] was 39200 nM. It also gave a TGI [8] greater than 100 µM, a GI50 [9] of 90100 nM and a TGI [9] greater than 100 µM. For the same compound, the GI50 [10] was greater than 100 µM and the TGI [10] was greater than 100 µM.

Work on `CCN(CC)CCOc1ccc(/C=C2\CC3C4CC=C5C[C@@H](O)CC[C@]5(C)C4CC[C@]3(C)C2=O)cc1OC` (stereo not given in full) yielded a GI50 [1] of 2540 nM, a TGI [1] greater than 20.5 µM and a GI50 [2] of 2300 nM. It also gave a TGI [2] of 5.5 µM, a GI50 [3] of 1920 nM and a TGI [3] of 3.66 µM. For the same compound, the GI50 [4] was 8430 nM, the TGI [4] was 21.6 µM and the GI50 [5] was 4140 nM. For the same compound, the TGI [5] was 16.3 µM, the GI50 [6] was 3.38 µM and the TGI [6] was 12.7 µM. The GI50 [7] was 2060 nM, the TGI [7] was 4.34 µM and the GI50 [8] was 2940 nM. It also gave a TGI [8] of 7.72 µM, a GI50 [9] of 5420 nM and a TGI [9] greater than 53 µM. The GI50 [10] was 9.51 µM and the TGI [10] was 21.4 µM.

For `COc1cc(-c2nn(-c3cccc(NC(=O)Nc4ccc(Cl)c(Cl)c4)c3)cc2-c2ccncc2)ccc1Cl`, the GI50 [1] was 1590 nM, the TGI [1] was greater than 50 µM and the GI50 [2] was 1040 nM. The TGI [2] was 3.11 µM, the GI50 [3] was 1310 nM and the TGI [3] was 4.48 µM. It also gave a GI50 [4] of 1560 nM, a TGI [4] of 6.2 µM and a GI50 [5] of 1120 nM. For the same compound, the TGI [5] was 3.7 µM, the GI50 [6] was 0.965 µM and the TGI [6] was 3.08 µM. The GI50 [7] was 911 nM, the TGI [7] was 2.69 µM and the GI50 [8] was 1180 nM. For the same compound, the TGI [8] was 3.48 µM, the GI50 [9] was 1110 nM and the TGI [9] was greater than 50 µM. It also gave a GI50 [10] of 1.52 µM and a TGI [10] of 34.2 µM.

With `COC12C=C/C(=C(/C(=O)OCc3ccncc3)C(=O)CCCCCCCCC3(OC)C=C/C(=C(/C(=O)OCc4ccncc4)C(=O)CCCCCCCC1)O3)O2` the GI50 [1] was 227 nM, the TGI [1] was 1.26 µM and the GI50 [2] was 1140 nM. For the same compound, the TGI [2] was 4.49 µM, the GI50 [3] was 354 nM and the TGI [3] was 1.19 µM. For the same compound, the GI50 [4] was 683 nM, the TGI [4] was 1.39 µM and the GI50 [5] was 1120 nM. The TGI [5] was 2.85 µM, the GI50 [6] was 0.877 µM and the TGI [6] was 2.03 µM. For the same compound, the GI50 [7] was 170 nM, the TGI [7] was 0.574 µM and the GI50 [8] was 316 nM. For the same compound, the TGI [8] was 2.14 µM, the GI50 [9] was 915 nM and the TGI [9] was 1.98 µM. It also gave a GI50 [10] of 0.709 µM and a TGI [10] of 2.29 µM.

For `O=C(c1ccc(Cl)cc1)c1cnc(Nc2ccccc2Cl)s1`, the TGI [1] was greater than 100 µM, the TGI [2] was 47.2 µM and the TGI [3] was 39.1 µM. It also gave a TGI [4] greater than 87.8 µM, a TGI [5] of 40 µM and a TGI [6] of 55.3 µM. For the same compound, the TGI [7] was greater than 31.6 µM, the TGI [8] was 74.2 µM and the TGI [9] was greater than 59.8 µM. The TGI [10] was 48.7 µM.

`O=C(CC(O)(C(F)(F)F)C(F)(F)F)c1cc(CC(=O)C(O)(C(F)(F)F)C(F)(F)F)cc(CC(=O)C(O)(C(F)(F)F)C(F)(F)F)c1` showed a TGI [1] greater than 10 µM, a TGI [2] of 4.56 µM and a TGI [3] of 4.53 µM. It also gave a TGI [4] of 4.19 µM, a TGI [5] of 5.34 µM and a TGI [6] of 4.9 µM. The TGI [7] was greater than 9.09 µM, the TGI [8] was 4.15 µM and the TGI [9] was 2.25 µM. For the same compound, the TGI [10] was greater than 10 µM.

In the case of `CCOc1ccc2nc(S/C(=C/C=C(C#N)C#N)c3ccc(C)cc3)sc2c1`, the GI50 [1] is reported as 5350 nM, the TGI [1] is reported as 35.8 µM and the GI50 [2] is reported as greater than 100000 nM. The TGI [2] was greater than 100 µM, the GI50 [3] was 21900 nM and the TGI [3] was 46.8 µM. The GI50 [4] was 25100 nM, the TGI [4] was 53.6 µM and the GI50 [5] was 17100 nM. For the same compound, the TGI [5] was 54.6 µM, the GI50 [6] was 26 µM and the TGI [6] was 57.2 µM. For the same compound, the GI50 [7] was 35800 nM, the TGI [7] was greater than 100 µM and the GI50 [8] was 54500 nM. The TGI [8] was greater than 100 µM, the GI50 [9] was 22700 nM and the TGI [9] was 57.9 µM. For the same compound, the GI50 [10] was 40.5 µM and the TGI [10] was greater than 100 µM.

`Nc1c(C(=O)Nc2cccc(Br)c2)sc2nc3c(cc12)C(=O)CCC3` was tested, and the GI50 [1] was 426 nM, the TGI [1] was greater than 100 µM and the GI50 [2] was greater than 100000 nM. The TGI [2] was greater than 100 µM, the GI50 [3] was 860 nM and the TGI [3] was greater than 100 µM. It also gave a GI50 [4] of 1460 nM, a TGI [4] greater than 53.2 µM and a GI50 [5] of 615 nM. For the same compound, the TGI [5] was greater than 100 µM, the GI50 [6] was 0.448 µM and the TGI [6] was greater than 100 µM. For the same compound, the GI50 [7] was 568 nM, the TGI [7] was greater than 100 µM and the GI50 [8] was 1730 nM. For the same compound, the TGI [8] was greater than 100 µM, the GI50 [9] was 373 nM and the TGI [9] was greater than 100 µM. The GI50 [10] was 0.426 µM and the TGI [10] was greater than 61.6 µM.
